ChEMBL document CHEMBL3997812, “The induction of oxidative stress in cervix carcinoma cells by levoglucosenone derived 4-S-salicyl derivative and (1-4)-S-thio-disaccharides. Part 4” (2017)
The source made the active and inactive calls. No cut-off for these calls is given here.

Tests used:
HeLa [1] = assay: Effect on HMOX mRNA expression in human HeLa cells after 4 hrs by RT-PCR method relative to control; type: functional
HeLa [2] = assay: Effect on NQO1 mRNA expression in human HeLa cells after 4 hrs by RT-PCR method relative to control; type: functional
HeLa [3] = assay: Induction of DNA damage in human HeLa cells incubated for 1 hr followed by repair incubation for 120 mins by alkaline comet assay; type: functional, cell-based
Escherichia coli [4] = assay: Induction of Escherichia coli pUC19 DNA damage assessed as increase in linear DNA forms after 1 hr by agarose gel electrophoresis
HeLa [5] = assay: Upregulation of CAT mRNA expression in human HeLa cells after 4 hrs by RT-PCR method; type: functional, cell-based
HeLa [6] = assay: Induction of DNA damage in human HeLa cells assessed as increase in DNA lessions at 4 degreeC incubation for 120 mins by alkaline comet assay relative to control; type: functional, cell-based
HeLa [7] = assay: Effect on SOD1 mRNA expression in human HeLa cells after 4 hrs by RT-PCR method relative to control; type: functional
HeLa [8] = assay: Effect on SOD2 mRNA expression in human HeLa cells after 4 hrs by RT-PCR method relative to control; type: functional
HeLa [9] = assay: Geno-toxicity in human HeLa cells assessed as induction of DNA damage by measuring increase in single strand breaks after 1 hr by comet assay; type: functional, cell-based
HeLa [10] = assay: Induction of oxidative stress in human HeLa cells assessed as reduction in GSH level after 1 hr by MBCL probe based flow cytometry relative to control; type: functional; design: scale not given: the % may be the effect or the level left
HeLa [11] = assay: Geno-toxicity in human HeLa cells assessed as induction of DNA damage after 1 hr by alkaline comet assay; type: functional, cell-based
HeLa [12] = assay: Induction of oxidative stress in human HeLa cells assessed as reduction in thioredoxin reductase at IC50 after 14 hrs by DTNB/bradford reagent based colorimetric method; type: functional; design: scale not given: the % may be the effect or the level left
HeLa [13] = assay: Geno-toxicity in human HeLa cells assessed as induction of DNA damage by measuring increase in double stranded DNA breaks at 5.6 to 69 uM after 1 hr by neutral comet assay; type: functional, cell-based
HeLa [14] = assay: Induction of DNA damage in human HeLa cells after 1 hr in presence of antioxidant epicatechin by alkaline comet assay relative to control; type: functional, cell-based
HeLa [15] = assay: Induction of DNA damage in human HeLa cells assessed as increase in DNA lessions at 37 degreeC incubation for 120 mins by alkaline comet assay relative to control; type: functional, cell-based
HeLa [16] = assay: Induction of DNA damage in human HeLa cells after 1 hr in presence of antioxidant vitamin E by alkaline comet assay relative to control; type: functional, cell-based
Escherichia coli [17] = assay: Induction of Escherichia coli pUC19 DNA damage assessed as decrease in supercoiled covalently closed circular DNA forms after 1 hr by agarose gel electrophoresis
HeLa [18] = assay: Effect on NCOA7 mRNA expression in human HeLa cells after 4 hrs by RT-PCR method relative to control; type: functional
Escherichia coli [19] = assay: Induction of Escherichia coli pUC19 DNA damage assessed as increase in open circular DNA forms after 1 hr by agarose gel electrophoresis
HeLa [20] = assay: Effect on GPX4 mRNA expression in human HeLa cells after 4 hrs by RT-PCR method relative to control; type: functional
HeLa [21] = assay: Effect on NOX5 mRNA expression in human HeLa cells after 4 hrs by RT-PCR method relative to control; type: functional
HeLa [22] = assay: Effect on TXN mRNA expression in human HeLa cells after 4 hrs by RT-PCR method relative to control; type: functional
HeLa [23] = assay: Effect on NOX4 mRNA expression in human HeLa cells after 4 hrs by RT-PCR method relative to control; type: functional
HeLa [24] = assay: Upregulation of GPX1 mRNA expression in human HeLa cells after 4 hrs by RT-PCR method; type: functional, cell-based
HeLa [25] = assay: Induction of ROS production in human HeLa cells after 1 hr by CM-H2DCFDA probe based fluorescence assay; type: functional, cell-based
HeLa [26] = assay: Geno-toxicity in human HeLa cells assessed as induction of DNA damage by measuring increase in incomplete excision repair sites at pH 12.1 after 1 hr by comet assay; type: functional, cell-based
HeLa [27] = assay: Effect on GCLM mRNA expression in human HeLa cells after 4 hrs by RT-PCR method relative to control; type: functional
HeLa [28] = assay: Induction of nitric oxide production in human HeLa cells after 1 hr by DAF2-DA probe based fluorescence assay; type: functional, cell-based
HeLa [29] = assay: Geno-toxicity in human HeLa cells assessed as induction of DNA damage by measuring increase in double stranded DNA breaks at 17 to 137 uM after 1 hr by neutral comet assay; type: functional, cell-based
HeLa [30] = assay: Geno-toxicity in human HeLa cells assessed as induction of DNA damage by measuring increase in double stranded DNA breaks at 69 to 550 uM after 1 hr by neutral comet assay; type: functional, cell-based

| SMILES | fold change (FC) (HeLa [1]) | fold change (FC) (HeLa [2]) | Activity (HeLa [3]) | Activity (Escherichia coli [4]) | Activity (HeLa [5]) | Activity (HeLa [6]) | fold change (FC) (HeLa [7]) | fold change (FC) (HeLa [8]) | Activity (HeLa [9]) | Activity (HeLa [10]) | Activity (HeLa [11]) | Activity (HeLa [12]) [%] | Activity (HeLa [14]) | Activity (HeLa [15]) | Activity (HeLa [16]) | Activity (Escherichia coli [17]) | fold change (FC) (HeLa [18]) | Activity (Escherichia coli [19]) | fold change (FC) (HeLa [20]) | fold change (FC) (HeLa [21]) | also measured |
| --- | --- | --- | --- | --- | --- | --- | --- | --- | --- | --- | --- | --- | --- | --- | --- | --- | --- | --- | --- | --- | --- |
| CC(=O)OC[C@H]1O[C@@H](S[C@@H]2CC(=O)[C@@H]3OC[C@H]2O3)[C@H](OC(C)=O)[C@@H](OC(C)=O)[C@@H]1OC(C)=O | 20.29 | 1.34 | inactive | inactive | Active | inactive | 1.18 | 1.56 | Dose-dependent effect | 20% | Dose-dependent effect | 18.3 | inactive | Active | inactive | inactive | 0.43 | inactive | 1.15 | 0.53 | Activity (HeLa [13]): inactive; fold change (FC) (HeLa [22]): 0.76; fold change (FC) (HeLa [23]): 0.58; Activity (HeLa [24]): Active; Activity (HeLa [25]): Active; Activity (HeLa [26]): Dose-dependent effect; fold change (FC) (HeLa [27]): 2.21; Activity (HeLa [28]): inactive |
| O=C(O)c1ccccc1S[C@@H]1CC(=O)[C@@H]2OC[C@H]1O2 | 3.42 | 1.61 | inactive | inactive | Active | inactive | 1.12 | 1.28 | Dose-dependent effect | Active | Dose-dependent effect | 7.5 | inactive | Active | inactive | inactive | 0.51 | inactive | 0.56 | 0.56 | Activity (HeLa [29]): inactive; fold change (FC) (HeLa [22]): 0.93; fold change (FC) (HeLa [23]): 1.13; Activity (HeLa [24]): Active; Activity (HeLa [25]): Active; Activity (HeLa [26]): Dose-dependent effect; fold change (FC) (HeLa [27]): 1.56; Activity (HeLa [28]): inactive |
| CC(=O)OC[C@H]1O[C@@H](S[C@@H]2CC(=O)[C@@H]3OC[C@H]2O3)[C@H](OC(C)=O)[C@@H](OC(C)=O)[C@H]1OC(C)=O | 10.53 | 1.36 | inactive | inactive | Active | inactive | 1.07 | 1.26 | Dose-dependent effect | 60% | Dose-dependent effect | 9.2 | inactive | Active | inactive | inactive | 0.37 | inactive | 0.75 | 0.68 | fold change (FC) (HeLa [22]): 1.07; fold change (FC) (HeLa [23]): 0.74; Activity (HeLa [24]): Active; Activity (HeLa [25]): Active; Activity (HeLa [26]): Dose-dependent effect; fold change (FC) (HeLa [27]): 1.77; Activity (HeLa [28]): inactive; Activity (HeLa [30]): inactive |
| O=C1C[C@@H](S[C@@H]2O[C@H](CO)[C@@H](O)[C@H](O)[C@H]2O)[C@H]2CO[C@@H]1O2 | 7.29 | 1.27 | inactive | inactive | Active | inactive | 1.16 | 1.25 | Dose-dependent effect | Active | Dose-dependent effect | 3.86 | inactive | Active | inactive | inactive | 0.35 | inactive | 0.56 | 0.34 | fold change (FC) (HeLa [22]): 0.94; fold change (FC) (HeLa [23]): 0.68; Activity (HeLa [24]): Active; Activity (HeLa [25]): Active; Activity (HeLa [26]): Dose-dependent effect; fold change (FC) (HeLa [27]): 1.95; Activity (HeLa [28]): inactive; Activity (HeLa [30]): inactive |
